Experiments:
[1] = biological target: T1, MAO A (Homo sapiens, UniProt P21397); assay: MAO A inhibitory activity assay (% inhibition); assay type: biochemical; details: terpene added at 0.5% (v/v) to Don Julio Añejo (40% ABV) versus 40% ethanol
T1 sequence (P21397 1-527): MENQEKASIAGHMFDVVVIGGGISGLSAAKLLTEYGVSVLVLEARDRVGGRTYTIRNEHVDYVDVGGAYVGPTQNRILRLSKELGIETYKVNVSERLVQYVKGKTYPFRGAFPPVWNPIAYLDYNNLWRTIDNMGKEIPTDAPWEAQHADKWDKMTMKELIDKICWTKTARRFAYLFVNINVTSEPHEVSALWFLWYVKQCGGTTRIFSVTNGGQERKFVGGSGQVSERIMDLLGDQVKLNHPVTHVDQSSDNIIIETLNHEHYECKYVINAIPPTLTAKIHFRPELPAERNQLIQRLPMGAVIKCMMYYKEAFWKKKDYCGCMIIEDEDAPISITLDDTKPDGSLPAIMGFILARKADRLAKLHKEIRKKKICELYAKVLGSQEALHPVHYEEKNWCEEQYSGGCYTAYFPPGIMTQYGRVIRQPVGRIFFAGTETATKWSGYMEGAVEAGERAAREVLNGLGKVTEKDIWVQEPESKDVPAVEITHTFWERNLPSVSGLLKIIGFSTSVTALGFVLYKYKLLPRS
Excerpt: (§1) U.S. […] The contents of this document are incorporated herein by reference, but briefly, methods that include reverse osmosis and low-pressure evaporation to provide retentates with significant concentrations of these inhibitors are described. In addition, details of assay methods for monoamine oxidase activity (and therefore inhibition thereof) and for ethanol content are provided.

[2] = biological target: T2, MAO B (Homo sapiens, UniProt P27338); assay: MAO B inhibitory activity assay (% inhibition); assay type: biochemical; details: terpene added at 0.5% (v/v) to Don Julio Añejo (40% ABV) versus 40% ethanol
T2 sequence (P27338 1-520): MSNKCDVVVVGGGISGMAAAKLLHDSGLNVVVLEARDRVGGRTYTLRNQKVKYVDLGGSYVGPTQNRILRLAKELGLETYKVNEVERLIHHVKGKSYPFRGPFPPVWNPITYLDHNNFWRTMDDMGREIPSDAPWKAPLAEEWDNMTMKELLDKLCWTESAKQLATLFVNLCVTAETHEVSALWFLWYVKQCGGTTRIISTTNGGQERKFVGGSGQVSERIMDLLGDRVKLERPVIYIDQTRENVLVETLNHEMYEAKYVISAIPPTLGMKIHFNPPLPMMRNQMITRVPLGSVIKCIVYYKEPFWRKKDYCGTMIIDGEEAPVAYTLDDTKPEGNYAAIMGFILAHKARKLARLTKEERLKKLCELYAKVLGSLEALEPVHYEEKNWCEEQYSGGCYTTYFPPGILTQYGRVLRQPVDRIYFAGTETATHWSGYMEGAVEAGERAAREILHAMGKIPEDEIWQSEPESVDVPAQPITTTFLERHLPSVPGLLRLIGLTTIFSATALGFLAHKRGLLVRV
Excerpt: as §1

C=C(C)[C@@H]1CCC2=CCC[C@@H](C)[C@]2(C)C1 [valencene]
Δ % Inhibition MAO A (DJA + terpene) − (ETOH + terpene) [1]: 9%
Δ % Inhibition MAO B (DJA + terpene) − (ETOH + terpene) [2]: 20%

Source: US20240327764A1, “Manufacturing a Distilled Spirit Based Functional Ingredient” (priority 2022, published 2024)
